Measurements from patent US20070020747A1, “Composition for eliminating ethidium bromide and use thereof” (priority 2005, published 2007).

Legend:
[1] = UV examination of EtBr elimination by oxidants in beakers under a four-tube UV lid (Example 2); conditions: oxidant 50 mM
Description: The appearance of the light source was a rectangular lid and the size was 35 cm×21 cm×15 cm. Four parallel 8 W UV tubes were implanted on the top of the lid.
5 beakers were prepared. Beaker 1 and 2 were added 100 μl LiNO3 and 9.9 ml EtBr, so that the final concentration of LiNO3 was 50 mM. Beaker 3 and 4 were added 100 μl NaNO2 and 9.9 ml EtBr, so that the final concentration of NaNO2 was 50 mM. Beaker 5 was added 10 ml EtBr only. The beakers 1, 3 and 5 were illuminated with UV, and the samples were collected in the time points 0, 15, 30, 60 and 120 minutes. The beakers 2 and 4 were not illuminated with UV, and the samples were collected in the time point 120 minutes.
Each sample was collected 25 μl from the experimental beaker in the selected time point. There were 17 samples totally. These samples were dropped on the center of a filter paper (diameter 2.5 cm) and illuminated with UV to observe the elimination of EtBr.

[2] = UV examination of EtBr elimination by oxidants in glass bottles (Example 1); conditions: for EtBr cleaning effect: oxidant 500 mM, not illuminated with UV; for EtBr cleaning effect / EtBr-eliminating effect (fluorescence): 60 min; for elimination of EtBr in solution (fluorescence): oxidant 20 or 500 mM, illuminated with UV for 60 minutes, groups 1-3
Description: 5M lithium nitrate (LiNO3), 5M sodium nitrite (NaNO2), and 5 µg/ml EtBr solutions were prepared.
7 glass bottles (about 7 ml of capacity) were prepared with solutions as described in Table 1. The bottle 1 was added 4 μl LiNO3 and 996 μl EtBr, wherein the final concentration of LiNO3 was 20 mM. The bottle 2 was added 100 μl LiNO3 and 900 μl EtBr, wherein the final concentration of LiNO3 was 500 mM. The bottle 3 was added 4 μl NaNO2 and 996 μl EtBr, wherein the final concentration of NaNO2 was 20 mM. The bottle 4 was added 100 μl NaNO2 and 900 μl EtBr, wherein the final concentration of NaNO2 was 500 mM. The bottle 5 was added 1 ml EtBr only. The bottle 6 was added 100 μl LiNO3 and 900 μl EtBr. The bottle 7 was added 100 μl NaNO2 and 900 μl EtBr.
The bottles 1-5 were illuminated with ultraviolet, which was 8 W and the wavelength was 180-280 nm. The samples were collected in the time point 0 and 60 minutes. The bottles 6 and 7 were not illuminated with ultraviolet and the samples were collected in the time point 60 minutes.
Except the wavelength of UV was changed to 280˜320 nm, all conditions were identical to group 1.
Except the wavelength of UV was changed to 320˜380 nm, all conditions were identical to group 1.
Each sample was collected 25 μl from the experimental bottle in the selected time point. There were 12 samples for each group, total 36 samples. These samples were dropped on the center of a filter paper (diameter 2.5 cm) and illuminated with UV to observe the elimination of EtBr.

[3] = after 60 minutes of UV illumination
[4] = after illuminating with UV for 15 minutes
[5] = oxidant plus UV with wavelength 180~280 nm, 8 W
[6] = oxidant plus UV with wavelength 320~380 nm
[7] = oxidant plus UV, second wavelength printed as 180~280 nm (group 2: 280~320 nm)

SMILES	destruction of EtBr (fluorescence) [1, 3]	destruction of EtBr (fluorescence) [1, 4]	destruction of EtBr (fluorescence) ([1]; no UV illumination, 120 min)	EtBr cleaning effect [2]	elimination of EtBr in solution (fluorescence) [2]	EtBr-eliminating effect (fluorescence) [2, 5]	EtBr-eliminating effect (fluorescence) [2, 6]	EtBr-eliminating effect (fluorescence) [2, 7]
O=[N+]([O-])[O-].[Li+] [lithium nitrate]	almost all of EtBr in the samples were destroyed	most EtBr	not destroyed (or insignificantly destroyed)	no or insignificant EtBr cleaning effect	completely destroyed	strongest effect	less effective	modest effect
O=NO [sodium nitrite]	almost all of EtBr in the samples were destroyed	most EtBr	not destroyed (or insignificantly destroyed)	no or insignificant EtBr cleaning effect	completely destroyed	strongest effect	less effective	modest effect
